In patent US20250129021A1, “SMALL MOLECULE PROTEIN SYNTHESIS MODULATORS” (Interdict Bio, Inc., priority 2023, published 2025):
Where a name gives a salt, the structure may show the parent alone.

Key:
Type in all cases: biochemical
Details in all cases: HeLa S3 lysate, sfGFP/mCherry ratio, 2 hrs at 30° C.
KRAS G12D = assay: In vitro transcription-translation (IVTT) assay, KRAS G12D reporter
Method in brief: (§1)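 Reporter: mCherry, P2A, then 3×FLAG-target peptide-sfGFP fusion, IRES-initiated; HeLa S3 lysate IVTT; cpd dilutions 30 μM−0.1 μM half-log in 100% DMSO (dilution-plate conc); DNA added last; 2 h, 30° C; PBS quench.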

CCND1 = assay: In vitro transcription-translation (IVTT) assay, CCND1 reporter
Method in brief: as §1

MYC = assay: In vitro transcription-translation (IVTT) assay, MYC reporter
Method in brief: as §1

ALK = assay: In vitro transcription-translation (IVTT) assay, ALK reporter
Method in brief: as §1

MCL-1 = assay: In vitro transcription-translation (IVTT) assay, MCL-1 reporter
Method in brief: as §1

In the case of `C#CCNC(=O)O[C@@H]1[C@@H](O)CN[C@@H]1Cc1ccc(OC)cc1` [V0074, (2R,3S,4S)-4-hydroxy-2-[(4-methoxyphenyl)methyl]pyrrolidin-3-yl N-(prop-2-yn-1-yl)carbamate], the IC50 (KRAS G12D) is reported as < 10 µM, the IC50 (CCND1) is reported as < 10 µM and the IC50 (MYC) is reported as < 10 µM. For the same compound, the IC50 (ALK) was < 10 µM.
`COc1ccc(C[C@H]2NC[C@H](O)[C@H]2OC(=O)NCCc2ncc(C)[nH]2)cc1` [V187818, (2R,3S,4S)-4-hydroxy-2-[(4-methoxyphenyl)methyl]pyrrolidin-3-yl N-[2-(4-methyl-3H-imidazol-2-yl)ethyl]carbamate] was tested, and the IC50 (KRAS G12D) was > 30 µM, the IC50 (CCND1) was > 30 µM and the IC50 (MYC) was 20 to 30 µM. The IC50 (ALK) was < 10 µM.
For `COc1ccc(C[C@H]2NC[C@H](O)[C@H]2OC(=O)NCCCCCO)cc1` [V187587, (2R,3S,4S)-4-hydroxy-2-[(4-methoxyphenyl)methyl]pyrrolidin-3-yl N-(5-hydroxypentyl)carbamate], the IC50 (KRAS G12D) was < 10 µM, the IC50 (CCND1) was < 10 µM and the IC50 (MYC) was < 10 µM. The IC50 (MCL-1) was < 10 µM and the IC50 (ALK) was < 10 µM.
With `COc1ccc(C[C@H]2NC[C@H](O)[C@H]2OC(=O)NCc2ncc[nH]2)cc1` [V187815, (2R,3S,4S)-4-hydroxy-2-[(4-methoxyphenyl)methyl]pyrrolidin-3-yl N-(1H-imidazol-2-ylmethyl)carbamate] the IC50 (KRAS G12D) was 20 to 30 µM, the IC50 (CCND1) was 10 to 20 µM and the IC50 (MYC) was < 10 µM. For the same compound, the IC50 (ALK) was < 10 µM.
`COc1ccc(C[C@H]2NC[C@H](O)[C@H]2OC(=O)NCCCCO)cc1` [V187586, (2R,3S,4S)-4-hydroxy-2-[(4-methoxyphenyl)methyl]pyrrolidin-3-yl N-(4-hydroxybutyl)carbamate] was tested, and the IC50 (KRAS G12D) was < 10 µM, the IC50 (CCND1) was < 10 µM and the IC50 (MCL-1) was < 10 µM. For the same compound, the IC50 (ALK) was < 10 µM.
For `COC1CCC(CC2NCC(O)C2OC(O)NCCOCC2CNNN2)CC1` (centres unmarked) [V187723, 4-[hydroxy({[2-(1,2,3-triazolidin-4-ylmethoxy)ethyl]amino})methoxy]-5-[(4-methoxycyclohexyl)methyl]pyrrolidin-3-ol; trifluoroacetic acid], the IC50 (KRAS G12D) was > 30 µM, the IC50 (CCND1) was 20 to 30 µM and the IC50 (MYC) was 10 to 20 µM. The IC50 (ALK) was < 10 µM.
For `COc1ccc(C[C@H]2NC[C@H](O)[C@H]2OC(=O)Nc2cc(C)[nH]n2)cc1` [V187658, (2R,3S,4S)-4-hydroxy-2-[(4-methoxyphenyl)methyl]pyrrolidin-3-yl N-(5-methyl-1H-pyrazol-3-yl)carbamate; trifluoroacetic acid], the IC50 (KRAS G12D) was > 30 µM, the IC50 (MYC) was > 30 µM and the IC50 (ALK) was > 30 µM.
`COc1ccc(C[C@H]2NC[C@H](O)[C@H]2OC(=O)NCCc2nc3ccccc3[nH]2)cc1` [V187820, (2R,3S,4S)-4-hydroxy-2-[(4-methoxyphenyl)methyl]pyrrolidin-3-yl N-[2-(1H-1,3-benzodiazol-2-yl)ethyl]carbamate] was tested, and the IC50 (KRAS G12D) was > 30 µM, the IC50 (CCND1) was 20 to 30 µM and the IC50 (MYC) was 10 to 20 µM. The IC50 (ALK) was < 10 µM.
`COc1ccc(C[C@H]2NC[C@H](O)[C@H]2OC(=O)NCCc2ncc[nH]2)cc1` [V187816, (2R,3S,4S)-4-hydroxy-2-[(4-methoxyphenyl)methyl]pyrrolidin-3-yl N-[2-(1H-imidazol-2-yl)ethyl]carbamate] was tested, and the IC50 (KRAS G12D) was > 30 µM, the IC50 (CCND1) was > 30 µM and the IC50 (MYC) was 20 to 30 µM. For the same compound, the IC50 (ALK) was < 10 µM.
In the case of `COc1ccc(C[C@H]2NC[C@H](O)[C@H]2OC(=O)NCCOCCN2C(=O)CNC2=O)cc1` [V187627], the IC50 (KRAS G12D) is reported as 20 to 30 µM, the IC50 (MYC) is reported as 10 to 20 µM and the IC50 (ALK) is reported as < 10 µM.
With `COc1ccc(C[C@H]2NC[C@H](O)[C@H]2OC(=O)NCC[C@H]2CN(CC3CC3)CCN2Cc2ccccc2)cc1` [V187344] the IC50 (KRAS G12D) was > 30 µM, the IC50 (MYC) was > 30 µM and the IC50 (ALK) was > 30 µM.
In the case of `COc1ccc(C[C@H]2NC[C@H](O)[C@H]2OC(=O)NCC[C@H]2CNCCN2Cc2ccccc2)cc1` [V187568, (2R,3S,4S)-4-hydroxy-2-[(4-methoxyphenyl)methyl]pyrrolidin-3-yl N-{2-[(2S)-1-benzylpiperazin-2-yl]ethyl}carbamate], the IC50 (KRAS G12D) is reported as > 30 µM, the IC50 (MYC) is reported as > 30 µM and the IC50 (ALK) is reported as 20 to 30 µM.
In the case of `COc1ccc(C[C@H]2NC[C@H](O)[C@H]2OC(=O)NCCCCCn2ccnc2)cc1` [V187636, (2R,3S,4S)-4-hydroxy-2-[(4-methoxyphenyl)methyl]pyrrolidin-3-yl N-[5-(imidazol-1-yl)pentyl]carbamate; trifluoroacetic acid], the IC50 (KRAS G12D) is reported as < 10 µM, the IC50 (MYC) is reported as < 10 µM and the IC50 (MCL-1) is reported as < 10 µM. For the same compound, the IC50 (ALK) was < 10 µM.
With `COc1ccc(C[C@H]2NC[C@H](O)[C@H]2OC(=O)NCCNc2c(N)c(=O)c2=O)cc1` [V187518, (2R,3S,4S)-4-hydroxy-2-[(4-methoxyphenyl)methyl]pyrrolidin-3-yl N-{2-[(2-amino-3,4-dioxocyclobut-1-en-1-yl)amino]ethyl}carbamate; trifluoroacetic acid] the IC50 (KRAS G12D) was > 30 µM, the IC50 (MYC) was > 30 µM and the IC50 (ALK) was 10 to 20 µM.
With `COc1ccc(CC2NCC(O)C2OC(=O)NC2CC(N)C2)cc1` [V187681, (2R,3S,4S)-4-hydroxy-2-[(4-methoxyphenyl)methyl]pyrrolidin-3-yl N-[(1s,3s)-3-aminocyclobutyl]carbamate] the IC50 (KRAS G12D) was > 30 µM, the IC50 (MYC) was > 30 µM and the IC50 (ALK) was > 30 µM.
For `COCc1nnc(NC(=O)O[C@@H]2[C@@H](O)CN[C@@H]2Cc2ccc(OC)cc2)s1` [V187730, (2R,3S,4S)-4-hydroxy-2-[(4-methoxyphenyl)methyl]pyrrolidin-3-yl N-[5-(methoxymethyl)-1,3,4-thiadiazol-2-yl]carbamate], the IC50 (KRAS G12D) was > 30 µM, the IC50 (MYC) was > 30 µM and the IC50 (ALK) was > 30 µM.
With `COc1ccc(C[C@H]2NC[C@H](O)[C@H]2OC(=O)NCC2CCSCC2)cc1` [V187516, (2R,3S,4S)-4-hydroxy-2-[(4-methoxyphenyl)methyl]pyrrolidin-3-yl N-(thian-4-ylmethyl) carbamate] the IC50 (KRAS G12D) was 10 to 20 µM, the IC50 (MYC) was < 10 µM and the IC50 (ALK) was < 10 µM.
`CCN(CC)CCCNC(=O)O[C@@H]1[C@@H](O)CN[C@@H]1Cc1ccc(OC)cc1` [V187387, (2R,3S,4S)-4-hydroxy-2-[(4-methoxyphenyl)methyl]pyrrolidin-3-yl N-[3-(diethylamino)propyl]carbamate trifluoroacetic acid salt] was tested, and the IC50 (KRAS G12D) was > 30 µM, the IC50 (MYC) was 20 to 30 µM and the IC50 (ALK) was < 10 µM.
In the case of `COc1ccc(C[C@H]2NC[C@H](O)[C@H]2OC(=O)NC2CNC2)cc1` [V187679, (2R,3S,4S)-4-hydroxy-2-(4-methoxybenzyl)pyrrolidin-3-yl azetidin-3-ylcarbamate], the IC50 (KRAS G12D) is reported as > 30 µM, the IC50 (MYC) is reported as > 30 µM and the IC50 (ALK) is reported as 10 to 20 µM.
In the case of `COc1ccc(C[C@H]2NC[C@H](O)[C@H]2OC(=O)NCCN2C[C@@H](O)[C@H](NC(C)=O)C2)cc1` [V187578, (2R,3S,4S)-4-hydroxy-2-[(4-methoxyphenyl)methyl]pyrrolidin-3-yl N-{2-[(3R,4R)-3-acetamido-4-hydroxypyrrolidin-1-yl]ethyl}carbamate], the IC50 (KRAS G12D) is reported as > 30 µM, the IC50 (MYC) is reported as > 30 µM and the IC50 (ALK) is reported as 20 to 30 µM.
`COc1ccc(C[C@H]2NC[C@H](O)[C@H]2OC(=O)NCCOCCn2ccnc2)cc1` [V187628, (2R,3S,4S)-4-hydroxy-2-[(4-methoxyphenyl)methyl]pyrrolidin-3-yl N-{2-[2-(imidazol-1-yl)ethoxy]ethyl}carbamate; trifluoroacetic acid] was tested, and the IC50 (KRAS G12D) was 10 to 20 µM, the IC50 (MYC) was < 10 µM and the IC50 (ALK) was < 10 µM.
For `COc1ccc(CC2NCC(O)[C@H]2OC(=O)NCCN(Cc2ccccn2)Cc2ccccn2)cc1` (stereo in doubt) [V187537, (2S,3S,4R)-4-hydroxy-2-[(4-methoxyphenyl)methyl]pyrrolidin-3-yl N-{2-[bis(pyridin-2-ylmethyl)amino]ethyl}carbamate; trifluoroacetic acid], the IC50 (KRAS G12D) was 20 to 30 µM, the IC50 (MYC) was < 10 µM and the IC50 (ALK) was < 10 µM.
With `COc1ccc(C[C@H]2NC[C@H](O)[C@H]2OC(=O)NCCN2CC(O)C(F)(F)C2)cc1` (some centres unmarked) [V187620] the IC50 (KRAS G12D) was 20 to 30 µM, the IC50 (MYC) was 10 to 20 µM and the IC50 (ALK) was < 10 µM.
`COc1ccc(C[C@H]2NC[C@H](O)[C@H]2OC(=O)NCCc2nc3ccc(Cl)cc3[nH]2)cc1` [V187821, (2R,3S,4S)-4-hydroxy-2-[(4-methoxyphenyl)methyl]pyrrolidin-3-yl N-[2-(5-chloro-3H-1,3-benzodiazol-2-yl)ethyl]carbamate] was tested, and the IC50 (KRAS G12D) was > 30 µM, the IC50 (CCND1) was > 30 µM and the IC50 (MYC) was 10 to 20 µM. The IC50 (ALK) was < 10 µM.
With `COc1ccc(C[C@H]2NC[C@H](O)[C@H]2OC(=O)NCC[C@@H]2NC(=O)C3(CCNCC3)NC2=O)cc1` [V187327, (2R,3S,4S)-4-hydroxy-2-[(4-methoxyphenyl)methyl]pyrrolidin-3-yl N-{2-[(3S)-2,5-dioxo-1,4,9-triazaspiro[5.5]undecan-3-yl]ethyl}carbamate; trifluoroacetic acid] the IC50 (KRAS G12D) was > 30 µM, the IC50 (MYC) was > 30 µM and the IC50 (ALK) was < 10 µM.
With `COc1ccc(C[C@@H]2NC[C@@H](O)[C@H]2OC(=O)NCCN(CCC(N)=O)Cc2c[nH]cn2)cc1` [V187539, (2S,3S,4R)-4-hydroxy-2-[(4-methoxyphenyl)methyl]pyrrolidin-3-yl N-{2-[(2-carbamoylethyl)(1H-imidazol-4-ylmethyl)amino]ethyl}carbamate; trifluoroacetic acid] the IC50 (KRAS G12D) was 20 to 30 µM, the IC50 (MYC) was < 10 µM and the IC50 (ALK) was < 10 µM.
For `COCCN(CCNC(=O)O[C@@H]1[C@H](O)CN[C@H]1Cc1ccc(OC)cc1)CCc1ccccc1` [V187508, (2S,3S,4R)-4-hydroxy-2-[(4-methoxyphenyl)methyl]pyrrolidin-3-yl N-{2-[(2-methoxyethyl)(2-phenylethyl)amino]ethyl}carbamate], the IC50 (KRAS G12D) was > 30 µM, the IC50 (MYC) was > 30 µM and the IC50 (ALK) was 10 to 20 µM.
In the case of `CCNc1c(NCCNC(=O)O[C@@H]2[C@@H](O)CN[C@@H]2Cc2ccc(OC)cc2)c(=O)c1=O` [V187589, (2R,3S,4S)-4-hydroxy-2-[(4-methoxyphenyl)methyl]pyrrolidin-3-yl N-(2-{[2-(ethylamino)-3,4-dioxocyclobut-1-en-1-yl]amino}ethyl)carbamate; trifluoroacetic acid], the IC50 (KRAS G12D) is reported as > 30 µM, the IC50 (MYC) is reported as > 30 µM and the IC50 (ALK) is reported as > 30 µM.
